For test [1], the target named is T1, Solute carrier family 22 member 12 (Homo sapiens, UniProt Q96S37).
T1 sequence (Q96S37 whole entry): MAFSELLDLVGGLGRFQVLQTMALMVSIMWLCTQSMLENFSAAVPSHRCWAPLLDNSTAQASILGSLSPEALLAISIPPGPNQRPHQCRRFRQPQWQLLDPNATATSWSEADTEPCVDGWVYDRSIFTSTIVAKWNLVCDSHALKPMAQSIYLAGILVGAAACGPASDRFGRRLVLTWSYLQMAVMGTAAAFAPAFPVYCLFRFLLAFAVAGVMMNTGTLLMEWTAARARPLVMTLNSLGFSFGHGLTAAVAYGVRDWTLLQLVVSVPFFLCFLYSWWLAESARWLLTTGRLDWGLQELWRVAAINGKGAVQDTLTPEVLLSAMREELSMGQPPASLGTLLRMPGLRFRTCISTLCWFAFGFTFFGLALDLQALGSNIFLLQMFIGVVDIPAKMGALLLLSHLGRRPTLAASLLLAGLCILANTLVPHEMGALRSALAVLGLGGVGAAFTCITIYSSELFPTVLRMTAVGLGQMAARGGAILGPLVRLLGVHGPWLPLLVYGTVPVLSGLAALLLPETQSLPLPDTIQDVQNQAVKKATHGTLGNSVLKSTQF
Particulars: HEK293, human, 8 min, read-out: INH.
Description: Inhibition of URAT1 in human HEK293 cells assessed as inhibition of uric acid uptake at 1000 nM incubated for 8 mins by Microbeta scintillation counting analysis

Test [2] concerns the target T1, Solute carrier family 22 member 12. As to conditions: HEK293, human, 8 min, read-out: INH. The source holds these as a separate data set.
For test [3] the target is unchanged. As to conditions: HEK293, human, 8 min, read-out: INH. The source holds these as a separate data set.
Description: Inhibition of URAT1 in human HEK293 cells assessed as inhibition of uric acid uptake at 100 nM incubated for 8 mins by Microbeta scintillation counting analysis
Test [4] addresses T2, Bile acid receptor (Homo sapiens, UniProt Q96RI1).
T2 sequence (Q96RI1 whole entry): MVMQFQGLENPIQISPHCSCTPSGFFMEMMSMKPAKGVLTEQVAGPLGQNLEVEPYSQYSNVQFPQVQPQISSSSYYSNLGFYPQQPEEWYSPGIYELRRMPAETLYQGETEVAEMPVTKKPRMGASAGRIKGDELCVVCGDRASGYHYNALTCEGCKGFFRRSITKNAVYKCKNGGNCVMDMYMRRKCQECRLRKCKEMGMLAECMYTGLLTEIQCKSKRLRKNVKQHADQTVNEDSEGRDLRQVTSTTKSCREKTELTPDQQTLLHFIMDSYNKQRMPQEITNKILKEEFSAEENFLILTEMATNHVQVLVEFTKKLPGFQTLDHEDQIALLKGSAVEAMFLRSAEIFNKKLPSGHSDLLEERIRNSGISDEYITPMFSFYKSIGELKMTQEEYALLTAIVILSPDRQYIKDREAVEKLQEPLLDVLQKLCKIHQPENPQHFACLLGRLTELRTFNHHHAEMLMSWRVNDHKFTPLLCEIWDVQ
Put plainly: Agonist activity at FXR (unknown origin) expressed in human HepG2 cells co-transfected with human RXR incubated for 24 hrs by cell-based luciferase transactivation assay.

The structures appear in SMILES notation.

On to `CCc1oc2ccccc2c1C(=O)c1cc(Br)c(O)c(Br)c1` [BENZBROMARONE], for which the inhibition at 1 µM in test [1] worked out at 72%. Further, in test [2], the inhibition at 0.3 µM stood at 31%. The inhibition at 0.1 µM in test [3] is 12%.
For the molecule `CCc1oc2ccccc2c1C(=O)c1cc(Br)c(OCc2cccc(OCC(=O)O)c2)c(Br)c1`, the inhibition at 1 µM in test [1] was determined as 31%. In addition, the inhibition at 0.3 µM in test [2] was 18%. Besides, the inhibition at 0.1 µM in test [3] worked out at 3%. Also, the 50% effective concentration (EC50) in test [4] is 17.8 µM.
Consider `CCc1oc2ccccc2c1C(=O)c1cc(Br)c(OCCCC(=O)O)c(Br)c1`, for which the inhibition at 1 µM in test [1] turned out to be 45%. Besides, in test [2], the inhibition at 0.3 µM was determined as 23%. For the same molecule, the inhibition at 0.1 µM in test [3] was found to be 6%.
For `CCc1oc2ccccc2c1C(=O)c1cc(Br)c(OCc2ccc(C(=O)O)cc2)c(Br)c1`, the inhibition at 1 µM in test [1] came out at 23%. For the same molecule, the inhibition at 0.3 µM in test [2] was found to be 8%. The inhibition at 0.1 µM in test [3] was 1%. The molecule further registered a concentration giving a half-maximal response (EC50) in test [4] of 10.3 µM.
Taken in the same sequence, the figures for `CCc1oc2ccccc2c1C(=O)c1ccc(OCc2cccc(C(=O)O)c2)cc1` were 12%, 3%, 1% and 15.6 µM.

Broadly, the EC50 is the concentration needed to bring the measured effect to its halfway point. Lower therefore signals a more potent agent.

Source of the values: ChEMBL document CHEMBL5150039 (Bioorg Med Chem, 2022).
